Results on 27 compounds are retold here after patent publication US6083677A, “Photographic element containing yellow dye-forming photographic coupler” (Eastman Kodak Company, priority 1998, dated 2000).

Data set [1] can be described thus: Spectrophotometric response of dyes in dilute acetonitrile solution. The format is physicochemical. Conditions: for Extinction: in M-1 cm-1 (unit assumed). An excerpt: As mentioned previously, many characteristics of a photographic image depend upon the spectral response of the dyes forming that image. The greater the molar extinction of an image-forming dye the less silver is needed to produce that dye; lower silver laydowns may lead to sharper photographic images. The color of a dye depends upon the position of its maximum light absorption (λ-max). With yellow dyes, the deeper (more bathochromic) the λmax of the dye the more orange the color of the dye. Orange dyes cannot be employed to effectively reproduce bright lemon yellows, thus lighter yellow dyes arc preferred for better color reproduction. Finally, the ideal yellow dye absorbs only light in the blue portion of the visible spectrum; yellow dyes that absorb substantial amounts of green light appear desaturated and therefore yield poorer color reproduction. The bathochromic (long wavelength side) one-half bandwidth (B1/2BW) is a good measure of the degree of unwanted absorption of a yellow dye. The B1/2BW is the distance on the long wavelength side of the dye's spectral response curve, in nanometers, from the λmax to the wavelength of 1/2 the maximum absorption. The smaller the B1/2BW distance, the more sharp-cutting is the spectral response of a dye and the better the color reproduction available from the dye.
^a. Spectrophotometric data derived from dilute acetonitrile solution
of chromatographically homogenous dyes; see Table 3 for invention dye

Data set [2] in a line: Accelerated solution test of acid hydrolysis of yellow dyes (HPLC). It is filed as physicochemical. Further details: kobs rate of hydrolysis: unit not given here. The note with it: 1 mM dye in 6% Triton X100, pH 2.0, phosphate buffer, 50° C. How it is done: The hydrolytic stability or acid catalyzed decomposition of yellow azomethine dyes is an important pathway in the degradation of photographic images. It is believed that the stability of yellow dyes toward acidic hydrolysis is predictive of their stability in color photographic images.
The rates of hydrolysis of a variety of dyes have been measured using an accelerated solution test format. The dyes (1.0 mM dye in 6% Triton X-100®) in buffered acidic solutions (pH=2.0, μ=0.2, phosphate buffer) were held at 50° C. The rates of dye destruction were monitored using standard HPLC procedures.
^a. 1 mM dye in 6% Triton X100 ® (60 g/l octylphenoxy
polyethoxyethanols, Avg M.W. = 646) solution in pH 2.0, […],
phosphate buffer at 50° C.

`CCCCc1ccc(NC(=O)C(=Nc2ccc(N(CC)CCNS(C)(=O)=O)cc2C)C(=O)c2c3n(c4ccccc24)CCCC3)cc1` [Coupler D-6]: in data set [1], the “B1/2BW (bathochromic one-half bandwidth)” value was 38 nm, the λmax is 426 nm and the Extinction is reported as 17,300.
`CCCCc1ccc(NC(=O)C(=Nc2ccc(N(CC)CCNS(C)(=O)=O)cc2C)C(=O)c2c3c(n(C)c2-c2ccccc2)CCCC3)cc1` [Coupler D-9]: in data set [1], the “B1/2BW (bathochromic one-half bandwidth)” value is recorded as 34 nm, the λmax stood at 422 nm and the Extinction is 19,300.
As to `CCCCc1ccc(NC(=O)C(=Nc2ccc(N(CC)CCNS(C)(=O)=O)cc2C)C(=O)c2cccn2-c2ccccc2)cc1` [Cmp-3, reference compound], in data set [1], the “B1/2BW (bathochromic one-half bandwidth)” value was determined as 40 nm, the λmax turned out to be 426 nm and the Extinction was 13,700.
For `CCCCc1ccc(NC(=O)C(=Nc2ccc(N(CC)CCNS(C)(=O)=O)cc2C)C(=O)c2c(-c3ccccc3)n(C)c3ccc(OC)cc23)cc1` [Coupler D-11], in data set [1], the “B1/2BW (bathochromic one-half bandwidth)” value is 33 nm, the λmax is 426 nm and the Extinction is listed as 21,300.
For `CCCCCCCCCCCCNS(=O)(=O)c1ccc(NC(=O)C(=Nc2ccc(N(CC)CCNS(C)(=O)=O)cc2C)C(=O)c2c(-c3ccccc3)n(C)c3ccccc23)c(Cl)c1` [Coupler D-17], in data set [2], the “kobs rate of hydrolysis” value is recorded as 0.31 and the “t1/2 - time for 1/2 the dye to hydrolyze” value came out at 610 h.
Take `CCCCCCCCCCCCS(=O)(=O)c1ccc(NC(=O)C(=Nc2ccc(N(CC)CCNS(C)(=O)=O)cc2C)C(=O)c2c(-c3ccccc3)n(C)c3ccccc23)c(Cl)c1` [Coupler D-15]: in data set [2], the “kobs rate of hydrolysis” value came out at 0.17 and the “t1/2 - time for 1/2 the dye to hydrolyze” value was 1,150 hr.
In the case of `CCCCc1ccc(NC(=O)C(=Nc2ccc(N(CC)CCNS(C)(=O)=O)cc2C)C(=O)c2c(-c3ccccc3)c3ccccc3n2C)cc1` [Coupler D-14], in data set [1], the “B1/2BW (bathochromic one-half bandwidth)” value is on record as 46 nm, the λmax stood at 438 nm and the Extinction is given as 11,900.
As for `CCCCCCCCCCCCCCCCOC(=O)c1ccc(Cl)c(NC(=O)C(=Nc2ccc(N(CC)CCNS(C)(=O)=O)cc2C)C(=O)c2c(C)n(C)c3ccccc23)c1` [Coupler D-18], in data set [2], the “kobs rate of hydrolysis” value is given as 9.63 and the “t1/2 - time for 1/2 the dye to hydrolyze” value came to 20 h.
As for `CCCCc1ccc(NC(=O)C(=Nc2ccc(N(CC)CCNS(C)(=O)=O)cc2C)C(=O)C(C)(C)C)cc1` [Cmp-7, reference compound], in data set [1], the “B1/2BW (bathochromic one-half bandwidth)” value came out at 42 nm, the λmax was 428 nm and the Extinction is listed as 11,800.
For the compound `CCCCc1ccc(NC(=O)C(=Nc2ccc(N(CC)CCNS(C)(=O)=O)cc2C)C(=O)c2c(-c3ccccc3)[nH]c3ccccc23)cc1` [Coupler D-7], in data set [1], the “B1/2BW (bathochromic one-half bandwidth)” value turned out to be 35 nm, the λmax is reported as 430 nm and the Extinction is 14,100.
In the case of `CCCCc1ccc(NC(=O)C(=Nc2ccc(N(CC)CCNS(C)(=O)=O)cc2C)C(=O)c2cn(-c3ccccc3)cc2C)cc1` [Cmp-2, reference compound], in data set [1], the “B1/2BW (bathochromic one-half bandwidth)” value came out at 40 nm, the λmax came out at 428 nm and the Extinction was 13,900.
As to `CCCCCCCCCCCCn1c(-c2ccccc2)c(C(=O)C(=Nc2ccc(N(CC)CCNS(C)(=O)=O)cc2C)C(=O)Nc2ccc(S(C)(=O)=O)cc2Cl)c2ccccc21` [Coupler D-16], in data set [2], the “kobs rate of hydrolysis” value was 0.38 and the “t1/2 - time for 1/2 the dye to hydrolyze” value is 500 h.
Consider `CCCCCCCCCCCCCCCCS(=O)(=O)Nc1ccc(Cl)c(NC(=O)C(=Nc2ccc(N(CC)CCNS(C)(=O)=O)cc2C)C(=O)C(C)(C)C)c1` [Cmp-11, reference compound], for which, in data set [2], the “kobs rate of hydrolysis” value is reported as 12.1 and the “t1/2 - time for 1/2 the dye to hydrolyze” value came out at 16 h.
With `CCCCc1ccc(NC(=O)C(=Nc2ccc(N(CC)CCNS(C)(=O)=O)cc2C)C(=O)c2c(C)n(C)c3ccccc23)cc1` [Coupler D-4], in data set [1], the “B1/2BW (bathochromic one-half bandwidth)” value is listed as 37 nm, the λmax was 428 nm and the Extinction was 16,200.
As for `CCCCCCCCCCCCOC(=O)c1ccc(Cl)c(NC(=O)C(=Nc2ccc(N(CC)CCNS(C)(=O)=O)cc2C)C(=O)C(C)(C)C)c1` [Cmp-10, reference compound], in data set [2], the “kobs rate of hydrolysis” value is 5.57 and the “t1/2 - time for 1/2 the dye to hydrolyze” value was 35 h.
On to `CCCCc1ccc(NC(=O)C(=Nc2ccc(N(CC)CCNS(C)(=O)=O)cc2C)C(=O)c2ccn(-c3ccccc3)c2)cc1` [Cmp-1, reference compound], for which, in data set [1], the “B1/2BW (bathochromic one-half bandwidth)” value is on record as 42 nm, the λmax worked out at 430 nm and the Extinction was 12,800.
For the compound `CCCCc1ccc(NC(=O)C(=Nc2ccc(N(CC)CCNS(C)(=O)=O)cc2C)C(=O)c2c(-c3ccccc3)n(C)c3ccccc23)cc1` [Coupler D-1], in data set [1], the “B1/2BW (bathochromic one-half bandwidth)” value is 32 nm, the λmax was determined as 426 nm and the Extinction is 19,700.
Consider `CCCCc1ccc(NC(=O)C(=Nc2ccc(N(CC)CCNS(C)(=O)=O)cc2C)C(=O)c2c(-c3ccccc3)oc3ccccc23)cc1` [Coupler D-13], for which, in data set [1], the “B1/2BW (bathochromic one-half bandwidth)” value was 47 nm, the λmax came to 444 nm and the Extinction was 13,400.
With `CCCCc1ccc(NC(=O)C(=Nc2ccc(N(CC)CCNS(C)(=O)=O)cc2C)C(=O)c2c(C)[nH]c3ccccc23)cc1` [Coupler D-2], in data set [1], the “B1/2BW (bathochromic one-half bandwidth)” value is 37 nm, the λmax came out at 426 nm and the Extinction was 10,000.
As to `CCCCc1ccc(NC(=O)C(=Nc2ccc(N(CC)CCNS(C)(=O)=O)cc2C)C(=O)c2c(-c3ccccc3)n(-c3ccccc3)c3ccccc23)cc1` [Coupler D-8], in data set [1], the “B1/2BW (bathochromic one-half bandwidth)” value came to 33 nm, the λmax turned out to be 426 nm and the Extinction is given as 16,600.
As to `CCCCc1ccc(NC(=O)C(=Nc2ccc(N(CC)CCNS(C)(=O)=O)cc2C)C(=O)c2c3c(n(C)c2-c2ccccc2)CCC3)cc1` [Coupler D-10], in data set [1], the “B1/2BW (bathochromic one-half bandwidth)” value is listed as 35 nm, the λmax worked out at 424 nm and the Extinction is on record as 17,700.
Consider `CCCCc1ccc(NC(=O)C(=Nc2ccc(N(CC)CCNS(C)(=O)=O)cc2C)C(=O)c2cn(C)c3ccccc23)cc1` [Coupler D-3], for which, in data set [1], the “B1/2BW (bathochromic one-half bandwidth)” value was found to be 39 nm, the λmax stood at 428 nm and the Extinction is 13,500.
Turning to `CCCCCCCCCCCCCCCCCCOc1ccc(S(=O)(=O)Nc2ccccc2Cl)cc1NC(=O)C(=Nc1ccc(N(CC)CCNS(C)(=O)=O)cc1C)C(=O)N1CCc2ccccc21` [Cmp-6, reference compound], in data set [2], the “kobs rate of hydrolysis” value stood at 2.48 and the “t1/2 - time for 1/2 the dye to hydrolyze” value was 78 h.
The matching figures for `CCCCCCCCCCCCCCCCOC(=O)c1ccc(Cl)c(NC(=O)C(=Nc2ccc(N(CC)CCNS(C)(=O)=O)cc2C)C(=O)c2c(C3CCCCC3)n(C)c3ccccc23)c1` [Coupler D-19]: 1.91 and 101 h.
For the compound `CCCCc1ccc(NC(=O)C(=Nc2ccc(N(CC)CCNS(C)(=O)=O)cc2C)C(=O)c2c(C3CCCCC3)n(C)c3ccccc23)cc1` [Coupler D-5], in data set [1], the “B1/2BW (bathochromic one-half bandwidth)” value came out at 37 nm, the λmax worked out at 428 nm and the Extinction is recorded as 16,800.
On to `CCCCc1ccc(NC(=O)C(=Nc2ccc(N(CC)CCNS(C)(=O)=O)cc2C)C(=O)c2c(-c3ccccc3)n(C)c3ccc(C#N)cc23)cc1` [Coupler D-12], for which, in data set [1], the “B1/2BW (bathochromic one-half bandwidth)” value was determined as 33 nm, the λmax is 430 nm and the Extinction was 20,100.
As for `CCCCc1ccc(NC(=O)C(=Nc2ccc(N(CC)CCNS(C)(=O)=O)cc2C)C(=O)c2ccn(-c3ccccc3)c2C)cc1` [Cmp-4, reference compound], in data set [1], the “B1/2BW (bathochromic one-half bandwidth)” value was 40 nm, the λmax is given as 434 nm and the Extinction is on record as 12,600.
